Measured values: patent US7241791B2, “Substituted 4-(indazol-3-yl)phenols” (Wyeth, priority 2002, dated 2007)
Where two headings read alike, the source gives them in different places.

How the values were obtained:
human ERα [1] = target: T1, human ERα (Homo sapiens, UniProt P03372); test: Creatine kinase expression (ER/CK) in Ad5-wt-hERα infected HAECT-1 cells; settings: for ER/CK % E2: efficacy relative to the maximal stimulation observed with E2
T1 sequence (P03372 1-595): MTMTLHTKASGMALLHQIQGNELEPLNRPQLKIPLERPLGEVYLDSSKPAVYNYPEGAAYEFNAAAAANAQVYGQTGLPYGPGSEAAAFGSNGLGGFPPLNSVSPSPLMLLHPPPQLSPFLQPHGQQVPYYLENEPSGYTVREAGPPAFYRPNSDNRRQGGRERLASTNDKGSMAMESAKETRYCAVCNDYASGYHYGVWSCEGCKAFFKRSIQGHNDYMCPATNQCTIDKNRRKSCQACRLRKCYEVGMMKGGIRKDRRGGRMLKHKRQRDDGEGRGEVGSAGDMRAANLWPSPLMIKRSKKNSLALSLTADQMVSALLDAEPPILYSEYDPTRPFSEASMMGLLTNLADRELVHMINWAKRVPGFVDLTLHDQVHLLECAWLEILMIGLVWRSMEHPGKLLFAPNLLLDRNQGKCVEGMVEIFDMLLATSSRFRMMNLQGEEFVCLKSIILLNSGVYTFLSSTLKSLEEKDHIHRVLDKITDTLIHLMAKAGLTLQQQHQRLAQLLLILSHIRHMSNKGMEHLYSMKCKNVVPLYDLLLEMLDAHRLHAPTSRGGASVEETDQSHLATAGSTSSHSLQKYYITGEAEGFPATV

human ERα [2] = target: T1, human ERα; test: NF-κB luciferase reporter (ER/NF-KB-luc) in Ad5-wt-hERα infected HAECT-1 cells; settings: for IC50: ER/NF-KB-luc IC50, Ad5-wt-ER infected HAECT-1 cells, IL-1β
[3] = HAECT1, read-out: ER/NF-KB-luc % E2, efficacy relative to the maximal inhibition observed with E2

Compound | EC50 (human ERα [1]) | ER/CK % E2 (human ERα [1]) | IC50 (human ERα [2]) | Emax (human ERα [2]; [3]) | EC50 (human ERα [1]; read-out: ER/CK EC50, Ad5-wt-ER infected HAECT-1 cells) | Emax (human ERα [2]; HAECT1, read-out: ER/NF-KB-luc % E2)
Oc1ccc(-c2n[nH]c3cc(Cl)ccc23)cc1 [Example 134, 4-(6-chloro-1H-indazol-3-yl)phenol] | 1930 nM | 36 % E2 | 897 nM | 76% | – | –
Cc1ccccc1-c1cccc2c(-c3ccc(O)cc3)nn(C(C)C)c12 [Example 235, 4-[1-isopropyl-7-(2-methylphenyl)-1H-indazol-3-yl]phenol] | 223 nM | 35 % E2 | 16 nM | 74% | – | –
Oc1ccc(-c2nn(C3CCCC3)c3c(-c4ccco4)cccc23)cc1 [Example 244, 4-[1-cyclopentyl-7-(2-furyl)-1H-indazol-3-yl]phenol] | 208 nM | 33 % E2 | 33 nM | 48% | – | –
Oc1ccc(-c2c3cccc(F)c3nn2C2CCCC2)cc1 [Example 61, 4-(2-cyclopentyl-7-fluoro-2H-indazol-3-yl)phenol] | 76 nM | 33 % E2 | 50 nM | 62% | – | –
Oc1ccc(-c2n[nH]c3c(F)cccc23)cc1 [Example 203, 4-(7-fluoro-1H-indazol-3-yl)phenol] | 1070 nM | 48 % E2 | 196 nM | 117% | – | –
Oc1ccc(-c2c3cccc(Cl)c3nn2C2CCCC2)cc1 [Example 52, 4-(7-chloro-2-cyclopentyl-2H-indazol-3-yl)phenol] | 111 nM | 27 % E2 | 17 nM | 76% | – | –
CCCCn1nc(-c2ccc(O)cc2)c2ccc(C(F)(F)F)cc21 [Example 198, 4-[1-butyl-6-(trifluoromethyl)-1H-indazol-3-yl]phenol] | 1000 nM | 30 % E2 | 303 nM | 100% | – | –
CCCn1nc2c(Cl)cccc2c1-c1ccc(O)cc1C [Example 79, 4-(7-chloro-2-propyl-2H-indazol-3-yl)-3-methylphenol] | 734 nM | 52 % E2 | 92 nM | 93% | – | –
C=CCn1nc2c(C(F)(F)F)cccc2c1-c1ccc(O)cc1O [Example 75, 4-[2-allyl-7-(trifluoromethyl)-2H-indazol-3-yl]-1,3-benzenediol] | 982 nM | 48 % E2 | 63 nM | 83% | – | –
4-[1-isopropyl-7-(2-methylphenyl)-1H-indazol-3-yl]-3-methyl-phenol [Example 256] | – | – | – | – | 292 nM | –
Cc1cc(O)ccc1-c1nn(C(C)C)c2c(-c3ccc(O)c(O)c3)cccc12 [Example 250, 4-[3-(4-hydroxy-2-methylphenyl)-1-isopropyl-1H-indazol-7-yl]-benzene-1,2-diol] | – | – | – | 80% | – | –
CC(C)Cn1nc(-c2ccc(O)cc2O)c2cccc(F)c21 [Example 94, 4-(7-fluoro-1-isobutyl-1H-indazole-3-yl)benzene-1,3-diol] | – | – | 332 nM | 86% | – | –
Cc1cc(O)ccc1-c1nn(C(C)C)c2c(-c3ccco3)cccc12 [Example 254, 4-[7-(2-furyl)-1-isopropyl-1H-indazol-3-yl]-3-methylphenol] | – | – | 27 nM | 56% | – | –
CCCn1nc(-c2ccc(OC(=O)CC)cc2)c2cccc(Cl)c21 [Example 123, 4-(7-chloro-1-propyl-1H-indazol-3-yl)phenyl propionate] | – | – | 328 nM | 71% | – | –
Oc1ccc(-c2nn(CC3CCCCC3)c3c(C(F)(F)F)cccc23)c(O)c1 [Example 67, 4-[1-(cyclohexylmethyl)-7-(trifluoromethyl)-1H-indazol-3-yl]benzene-1,3-diol] | – | – | 48 nM | 65% | – | –
CC(C)n1nc(-c2ccc(O)cc2)c2cccc(-c3ccc(-c4ccccc4)cc3)c21 [Example 233, 4-[7-(1,1′-biphenyl-4-yl)-1-isopropyl-1H-indazol-3-yl]phenol] | – | – | 87 nM | 81% | – | –
CCCCn1nc(-c2ccc(O)cc2)c2cccc(C(F)(F)F)c21 [Example 219, 4-[1-butyl-7-(trifluoromethyl)-1H-indazol-3-yl]phenol] | – | – | 369 nM | 104% | – | –
Cc1ccccc1-c1cccc2c(-c3ccc(O)cc3)nn(C3CCCC3)c12 [Example 245, 4-[1-cyclopentyl-7-(2-methylphenyl)-1H-indazol-3-yl]phenol] | – | – | 16 nM | 70% | – | –
Oc1ccc(-c2nn(Cc3ccccc3)c3c(F)cccc23)c(O)c1 [Example 151, 4-(1-benzyl-7-fluoro-1H-indazol-3-yl)benzene-1,3-diol] | – | – | 1060 nM | 81% | – | –

Compound | EC50 (human ERα [1]) | ER/CK % E2 (human ERα [1]) | IC50 (human ERα [2]) | Emax (human ERα [2]; [3]) | EC50 (human ERα [1]; read-out: ER/CK EC50, Ad5-wt-ER infected HAECT-1 cells) | Emax (human ERα [2]; HAECT1, read-out: ER/NF-KB-luc % E2)
Oc1ccc(-c2nn(C3CCCCC3)c3c(C(F)(F)F)cccc23)cc1 [Example 32, 4-[1-cyclohexyl-7-(trifluoromethyl)-1H-indazol-3-yl]phenol] | – | – | 65 nM | 91% | – | –
Oc1ccc(-c2nn(-c3ccc(F)c(Cl)c3)c3cc(O)ccc23)c(O)c1 [Example 24, 4-[1-(3-chloro-4-fluorophenyl)-6-hydroxy-1H-indazol-3-yl]benzene-1,3-diol] | – | – | 63 nM | 83% | – | –
CCCn1nc2c(F)cccc2c1-c1ccc(O)cc1C [Example 92, 4-(7-fluoro-2-propyl-2H-indazole-3-yl)-3-methylphenol] | – | – | 228 nM | 87% | – | –
Oc1ccc(-c2nn(-c3cccc(Cl)c3)c3cc(O)ccc23)c(O)c1 [Example 6, 4-[1-(3-chlorophenyl)-6-hydroxy-1H-indazol-3-yl]benzene-1,3-diol] | – | – | – | 85% | – | –
C=CCn1nc(-c2ccc(O)cc2O)c2cccc(Cl)c21 [Example 85, 4-(1-allyl-7-chloro-1H-indazole-3-yl)benzene-1,3-diol] | – | – | 235 nM | 46% | – | –
CCCCC/C=C/c1cccc2c(-c3ccc(O)cc3C)nn(C3CCCC3)c12 [Example 258, 4-{1-cyclopentyl-7-[(E)-hept-1-enyl]-1H-indazol-3-yl}-3-methyl-phenol] | – | – | 644 nM | 77% | – | –
Cc1cc(O)ccc1-c1nn(C2CCCC2)c2c(-c3ccc(-c4ccccc4)cc3)cccc12 [Example 261, 4-[7-(1,1′-biphenyl-4-yl)-1-cyclopentyl-1H-indazol-3-yl]-3-methyl-phenol] | – | – | 98 nM | 42% | – | –
O=[N+]([O-])c1cccc(-n2nc(-c3ccc(O)cc3O)c3ccc(O)cc32)c1 [Example 25, 4-[6-hydroxy-1-(3-nitrophenyl)-1H-indazol-3-yl]benzene-1,3-diol] | – | – | 274 nM | 112% | – | –
CCCn1nc(-c2ccc(OC(=O)CC(C)(C)C)cc2)c2cccc(Cl)c21 [Example 122, 4-(7-chloro-1-propyl-1H-indazol-3-yl)phenyl 3,3-dimethylbutanoate] | – | – | 350 nM | 78% | – | –
Oc1ccc(-c2nn(-c3cccc(F)c3)c3cc(O)ccc23)c(O)c1 [Example 21, 4-[1-(3-fluorophenyl)-6-hydroxy-1H-indazol-3-yl]benzene-1,3-diol] | – | – | – | – | – | 73%
CCCn1nc(-c2ccc(O)cc2)c2cccc(-c3ccc(O)cc3)c21 [Example 103, 4-[3-(4-hydroxyphenyl)-1-propyl-1H-indazole-7-yl]phenol] | – | – | 138 nM | 79% | – | –
CCCn1nc2c(F)cccc2c1-c1ccc(O)cc1 [Example 54, 4-(7-fluoro-2-propyl-2H-indazol-3-yl)phenol] | – | – | 393 nM | 77% | – | –
Cc1cc(O)ccc1-c1nn(CC(C)C)c2c(F)cccc12 [Example 96, 4-(7-fluoro-1-isobutyl-1H-indazole-3-yl)-3-methylphenol] | – | – | 88 nM | 78% | – | –
CC(=O)Oc1ccc(-c2nn(C3CCCC3)c3c(F)cccc23)cc1 [Example 114, 4-(1-cyclopentyl-7-fluoro-1H-indazol-3-yl)phenyl acetate] | – | – | 268 nM | 67% | – | –
CC(C)c1ccc(-n2nc(-c3ccc(O)cc3O)c3ccc(O)cc32)cc1 [Example 27, 4-[6-hydroxy-1-(4-isopropylphenyl)-1H-indazol-3-yl]benzene-1,3-diol] | – | – | 1030 nM | 96% | – | –
CCc1ccc(-c2cccc3c(-c4ccc(O)cc4)nn(C(C)C)c23)cc1 [Example 232, 4-[7-(4-ethylphenyl)-1-isopropyl-1H-indazol-3-yl]phenol] | – | – | 143 nM | 75% | – | –
CC(C)n1nc(-c2ccc(O)cc2)c2cccc(-c3ccc(CO)cc3)c21 [Example 230, 4-{7-[4-(hydroxymethyl)phenyl]-1-isopropyl-1H-indazol-3-yl}-phenol] | – | – | 367 nM | 82% | – | –
CCCn1nc(-c2ccc(O)cc2)c2cccc(-c3ccccc3)c21 [Example 111, 4-(7-phenyl-1-propyl-1H-indazol-3-yl)phenol] | – | – | 214 nM | 78% | – | –
OCCn1nc(-c2ccc(O)cc2)c2cccc(C(F)(F)F)c21 [Example 162, 4-[1-(2-hydroxyethyl)-7-(trifluoromethyl)-1H-indazol-3-yl]phenol] | – | – | – | 84% | – | –
